Tested on: IL-6
Test: Human monocyte assay, LPS-stimulated IL-6
Format: cell-based
Details: Monocyte; human monocytes, 1 μg/ml LPS, 5 hours
Description: The assay was designed as in the reference, Physiol.
Peripheral blood mononuclear cells (hPBMC) were harvested from human blood and suspended in RPMI 1640 culture medium containing 10% FCS, 100 U/mL penicillin and […] streptomycin (assay medium). Monocytes in the hPBMCs were counted using a Coulter Counter following which the cells were resuspended at 2×10^5 monocytes/mL. A cell suspension containing 2×10^4 monocytes was aliquoted per well of a 96-well plate. Subsequently, the hPBMCs were incubated for 4-5 hours at 37° C., 5% CO2 (During the incubation, the monocytes adhered to the bottom of 96-well plastic culture plate). Following the incubation, the non-adherent lymphocytes were washed with assay medium and the adherent monocytes re-fed with assay medium. After a 48-hour incubation period (37° C., 5% CO2), monocytes were pretreated with various concentrations of representative compounds of present invention (refer to table 6 and 7) (prepared in DMSO) or vehicle (0.5% DMSO) for 30 minutes and stimulated with 1 μg/ml LPS (Escherchia coli 0111:B4, Sigma Chemical Co., St. Louis, Mo.). The incubation was continued for 5 hours at 37° C., 5% CO2. Supernatants were harvested, assayed for IL-6 and TNF-α by ELISA as described by the manufacturer (BD Biosciences, USA). Dexamethasone (10 μM) was used as standard for this assay. […] Biological results for both IL-6 and TNFα are indicated in Table 6 and Table 7 respectively.

IC50 [µM] | SMILES
≥ 5 | Cc1cccc(S(=O)(=O)N(C)/N=C/c2cnc3ccc(-c4cccnc4)c(C)n23)c1 [Example 127, (E)-N,3-dimethyl-N′-((5-methyl-6-(pyridin-3-yl)imidazo[1,2-a]pyridin-3-yl)methylene)benzenesulfonohydrazide]
0.001 to 5 | Cc1ccc(-c2ccc3ncc(/C=N/N(C)S(=O)(=O)c4cc(F)ccc4C)n3c2)cn1 [Example 128, (E)-5-fluoro-N,2-dimethyl-N′-((6-(6-methylpyridin-3-yl)imidazo[1,2-a]pyridin-3-yl)methylene)benzenesulfonohydrazide]
≥ 5 | Cc1ccc(-c2ccc3ncc(/C=N/N(C)S(=O)(=O)c4ccccc4OC(F)(F)F)n3c2)cn1 [Example 129, (E)-N-methyl-N′-((6-(6-methylpyridin-3-yl)imidazo[1,2-a]pyridin-3-yl)methylene)-2-(trifluoromethoxy)benzenesulfonohydrazide]
0.001 to 5 | COc1ccc(F)cc1S(=O)(=O)N(C)/N=C/c1cnc2ccc(-c3ccc(C)nc3)cn12 [Example 130, (E)-5-Fluoro-2-methoxy-N-methyl-N′-((6-(6-methylpyridin-3-yl)imidazo[1,2-a]pyridin-3-yl)methylene)benzenesulfonohydrazide]
≥ 5 | Cc1ccc(-c2ccc3ncc(/C=N/N(C)S(=O)(=O)c4ccccc4C)n3c2)cn1 [Example 131, (E)-N,2-dimethyl-N′-((6-(6-methylpyridin-3-yl)imidazo[1,2-a]pyridin-3-yl)methylene)benzenesulfonohydrazide]
0.001 to 5 | Cc1ccc(F)cc1S(=O)(=O)N(C)/N=C/c1cnc2ccc(-c3cnc(F)c(C)c3)cn12 [Example 134, (E)-5-Fluoro-N′-((6-(6-fluoro-5-methylpyridin-3-yl)imidazo[1,2-a]pyridin-3-yl)methylene)-N,2-dimethylbenzenesulfonohydrazide]
≥ 5 | COc1ccc(-c2ccc3ncc(/C=N/N(C)S(=O)(=O)c4cc(F)ccc4C)n3c2)cn1 [Example 137, (E)-5-fluoro-N′-((6-(6-methoxypyridin-3-yl)imidazo[1,2-a]pyridin-3-yl)methylene)-N,2-dimethylbenzenesulfonohydrazide]
≥ 5 | Cc1ccc(F)cc1S(=O)(=O)N(C)/N=C/c1cnc2ccc(-c3cncc(C(F)(F)F)c3)cn12 [Example 139, (E)-5-fluoro-N, 2-dimethyl-N′-((6-(5-(trifluoromethyl)pyridin-3-yl)imidazo[1,2-a]pyridin-3-yl)methylene) benzenesulfonohydrazide]
0.001 to 5 | CN(/N=C/c1cnc2ccc(-c3cccnc3)cn12)C(=O)NCc1ccccc1 [Example 141, (E)-N-benzyl-1-methyl-2-((6-(pyridin-3-yl)imidazo[1,2-a]pyridin-3-yl)methylene)hydrazinecarboxamide]
0.001 to 5 | CN(N=Cc1cnc2ccc(Br)cn12)C(=O)NCc1ccccc1 [Example 145, N-benzyl-2-((6-bromoimidazo[1,2-a]pyridin-3-yl)methylene)-1-methylhydrazinecarboxamide]

Same assay, conditions: human monocytes, 1 μg/ml LPS, 5 hours

IC50 [µM] | SMILES
0.001 to 5 | Cc1ccc(F)cc1S(=O)(=O)N(C)/N=C/c1cnc2ccc(-c3ccc(Cl)nc3)cn12 [Example 135, (E)-N′-((6-(6-Chloropyridins-3-yl)imidazo[1,2-a]pyridin-3-yl)methylene)-5-fluoro-N,2-dimethylbenzenesulfonohydrazide]
≥ 5 | CN(/N=C/c1cnc2ccc(-c3cccnc3)cn12)C(=S)NCCN1CCOCC1 [Example 148]
0.001 to 5 | CN(N=Cc1cnc2ccc(Br)cn12)C(=S)NCCN1CCOCC1 [Example 151, 2-((6-bromoimidazo[1,2-a]pyridin-3-yl)methylene)-1-methyl-N-(2-morpholinoethyl) hydrazinecarbothioamide]

SMILES | IC50 [µM]
COc1ncc(-c2ccc3ncc(/C=N/N(C)S(=O)(=O)c4cc(F)ccc4C)n3c2)cn1 [Example 138, (E)-5-Fluoro-N-((6-(2-methoxypyrimidin-5-yl)imidazo[1,2-a]pyridine-3-yl)methylene)-N, 2-dimethylbenzenesulfonohydrazide] | ≥ 5

Source: patent US8741932B2, “Imidazopyridine derivatives” (Piramal Enterprises Limited, priority 2009, dated 2014)
